# From patent publication US9107948B2, “Compounds for diagnosing diseases associated with the expression of MUC5AC” (Guerbet, priority 2010, dated 2015)
# Several values for one entry are separate records, joined by “and”; a condition that tells them apart may be missing. Equal values may be shown once. Positions of bridges follow the written chain, without caps; N, C: chain ends. Residues, ends and D or L forms follow the SMILES beside them. No end group written: not given here.
# How the values were obtained:
# MUC2 glycoprotein = target: T1, MUC2 glycoprotein (Homo sapiens, UniProt Q02817); experiment: Labeling of colonic adenoma sections, recognition of MUC2; conditions: FIG. 4
# T1 construct: Sections of healthy gastric and colonic mucosae and of human colorectal adenoma; from tissue; host or cells: paraffin sections of human colonic adenoma
# Protocol: (§1) Sections of healthy gastric and colonic mucosae and of human colorectal adenoma (5 μm thick) were fixed for 24 h with 4% paraformaldehyde and embedded in paraffin. For the labeling, the sections were first of all deparaffinized in toluene and rehydrated in 95% alcohol. After rinsing in water, the slides are brought to boiling for 10 minutes in a citrate buffer (50 mM, pH 4). Once the temperature of the buffer has returned to 25-30° C., the slides are then rinsed with PBS and then successively incubated for 15 minutes in a 0.15% hydrogen peroxide (H2O2) solution and a kit for blocking the endogenous biotin for 1 h. The sections are then blocked using a milk-enriched buffer for 1 h at ambient temperature, and are then incubated at 4° C. for 18 h with the peptides at various concentrations (20 μM, 10 μM, 1 μM, 0.2 μM, 0.04 μM) or the antibodies (MUC5AC: PM8 at a 1/100 dilution and MUC2: Lum2-3 at a 1/100 dilution) diluted in PBS. The biotinylated peptides bound to the target are visualized using goat anti-biotin antibodies incubated for one hour at ambient temperature and then diluted in PBS at 1 μg/ml. A second incubation for one hour at ambient temperature is carried out in the presence of peroxidase-labeled anti-goat antibodies at 0.2 μg/ml diluted in PBS supplemented with 0.1% of Tween-20. […]
# MUC5AC = target: T2, MUC5AC (Homo sapiens, UniProt P98088); experiment: Labeling of tissue sections with biotinylated peptide (specificity); conditions: FIG. 4
# T2 construct: Sections of healthy gastric and colonic mucosae and of human colorectal adenoma; from tissue; host or cells: paraffin sections of human gastric epithelium and colorectal adenoma
# Protocol: as §1
# rat MUC5AC glycoprotein = experiment: ELISA on MUC5AC purified from rat stomach; format: binding; conditions: ELISA (FIG. 2), read-out: apparent dissociation constant K*d
# Protocol: (§2) The interaction between the peptide and MUC5AC is evaluated by means of an ELISA assay. The mucin MUC5AC (purified from pieces of human tumor on the basis of mucin extraction and purification protocols described in literature) is immobilized on a plate at the concentration of 12.5 μg/ml overnight at 4° C. The nonspecific sites are then saturated in a buffer enriched with milk, for 2 hours at 4° C. After several rinses, the peptide CPSIYPLLC (SEQ ID No: 2) coupled to biotin is incubated at increasing concentrations (10^−3M and 10^−6M) for 2 hours at 37° C. The biotinylated peptides bound to MUC5AC are visualized using goat anti-biotin antibodies incubated for one hour at ambient temperature and then diluted in PBS at 1 μg/ml. After removal of the unbound antibodies, a second incubation for one hour at ambient temperature is carried out in the presence of peroxidase-labeled anti-goat antibodies at 0.2 μg/ml, diluted in PBS supplemented with 0.1% of Tween-20. The peroxidase coloration reaction is carried out in the presence of H2O2-enriched ABTS. The measurement of the OD at 405 nm makes it possible to calculate the K*d MUC5AC value. The interaction between the peptide and MUC5AC is also evaluated by means of the previously described ELISA assay on the mucin MUC5AC purified beforehand from mouse and rat stomach.
# [1] = target: mouse MUC5AC glycoprotein; experiment: ELISA on MUC5AC purified from mouse stomach; format: binding; conditions: ELISA (FIG. 2), read-out: apparent dissociation constant K*d
# Protocol: as §2
# Relaxivity measurements = format: physicochemical; conditions: 37° C.
# Protocol: […] The longitudinal relaxation time T1 is measured using an inversion recovery sequence and the transverse relaxation time T2 is measured using a CPMG technique.
# The relaxation rates R1 (=1/T1) and R2 (=1/T2) were calculated for various concentrations of total metal (ranging from 0.1×10^−3 to 1×10^−3 mol/l) in aqueous solution at 37° C. The correlation between R1 or R2 as a function of the concentration is linear, and the slope represents the relaxivity r1 (R1/C) or r2 (R2/C) expressed as (1/second)×(1/mmol/l), i.e. (mM^−1·s^−1).
# [2] = tested on: HCT116 cells (control cells, MUC5AC-negative); experiment: USPIO binding test on colonic control cells, iron assay by relaxometry; format: cell-based, human; conditions: control cells HCT116, 1/2/4/8 mM iron, 1 H at 37° C.
# Protocol: (§3) After 21 days of culture for HT29-5M21 cells (MUC5AC cells), the literature reports that MUC5AC is massively expressed. […] The cells are rinsed with PBS at 4° C. and then directly brought into contact with 0.5 ml of USPIO diluted in PBS, for 1 H at 37° C. (incubator, 5% CO2). The USPIOs are tested at various iron concentrations of 1/2/4/8 mM on each of the lines. After the supernatant has been drawn off, the cells are washed twice with PBS and then scraped so as to subsequently be taken up with 250 μl of PBS (twice). The suspensions are subsequently freeze-dried and then taken up with 100 μl of a 5N HCl solution for 4 H at 80° C. in a water bath. The assay is then carried out using Paris reagent, before carrying out the relaxometry (Bruiser Minispec 60 MHz). The secretion of MUC5AC by the HT29 model and the absence of secretion with HCT116 were verified in the study.
# [3] = tested on: HT295M21 and HCT116 xenografts; experiment: Detection of USPIOs on tumor xenograft tissue after in vivo injection (anti-PEG antibody); set-up: species or system mice
# Text: (§4) In the experiments carried out, the PEG750-C60C was detected using the anti-PEG antibody on HT295M21 xenograft, on HCT116 xenograft and on a section of mouse stomach without counterstaining. The control compound was detected on a section of mouse stomach without counterstaining. The sections were visualized in parallel with an anti-MUC5AC antibody on HT295M21 and HCT116.
# [4] = tested on: MUC5AC-positive tumor (HT29 5M21 xenograft); experiment: Molecular MRI (RARE, 7T) of tumor in mice bearing MUC5AC-positive tumor; format: in vivo
# Protocol: (§5) The selected imaging parameters are the following: • RARE (rapid acquisition with relaxation enhancement) sequence (7T) • TR/TEeff=3000/48.7 ms, • RARE factor=4, • NEX=4, • Matrix=256×256 • FOV=2.3 cm • slice thickness=1 mm • 20 axial slices • spatial resolution=90 μm • acquisition time=12 min 48 s Mice: • bearing an MUC5AC-positive tumor were injected with PEG750-C60c (100 μmol/kg), • bearing an MUC5AC-positive tumor were injected with the control compound (100 μmol/kg) and • bearing an MUC5AC-negative tumor were injected with PEG750-C60c (100 μmol/kg).
# [5] = Particle size (PCS) and magnetic characterization; format: physicochemical
# Protocol: Determined by PCS (Malvern 4700 instrument, laser 488 nm at 90°) on a sample diluted to ˜1 millimolar with water for injection filtered through 0.22 μm.
# mouse gastric tissue = experiment: Detection of USPIOs on mouse stomach sections after in vivo injection (anti-PEG antibody); conditions: section of mouse stomach
# Text: as §4
# [6] = Plasma kinetics: iron concentration by relaxometry in plasma of imaged mice; format: in vivo; conditions: 1 h-1 h 30 after injection
# Text: IV.2 Plasma Kinetics: Calculation of the Concentration of USPIO Contained in the Plasma of the Imaged Mice
# It can be observed in table 3 that the iron concentrations are proportional to the dose of product injected.
# [7] = tested on: mucin MUC5AC in the stomach; experiment: Molecular MRI (RARE, 7T) of the stomach of tumor-bearing mice; format: in vivo; conditions: mice bearing MUC5AC-positive or -negative tumor
# Protocol: as §5
# MUC5AC. […] Indeed, using PEG750-C60c at equal concentration in animals having tumors with an opposite MUC5AC expression profile, but having the same mucin secretion characteristic in the stomach, a differential response was clearly observed in the tumor, but not in the stomach.
# [8] = tested on: HT29-5M21 cells (MUC5AC cells); experiment: USPIO binding test on colonic cell model, iron assay by relaxometry; format: cell-based, human; conditions: increasing concentrations 1/2/4/8 mM iron, 1 H at 37° C.
# Protocol: as §3
# [9] = tested on: MUC5AC-negative tumor (HCT116 xenograft); experiment: Molecular MRI (RARE, 7T) of tumor in mice bearing MUC5AC-negative tumor; format: in vivo
# Protocol: as §5
compound,measurement,setting,value
"CC[C@H](C)[C@@H]1NC(=O)[C@H](CO)NC(=O)[C@@H]2CCCN2C(=O)[C@@H](N)CSSC[C@@H](C(N)=O)NC(=O)[C@H](CC(C)C)NC(=O)[C@H](CC(C)C)NC(=O)[C@@H]2CCCN2C(=O)[C@H](Cc2ccc(O)cc2)NC1=O [peptide CPSIYPLLC, Cys-Pro-Ser-He-Tyr-Pro-Leu-Leu-Cys] (H-CPSIYPLLC-NH2; disulfide 1-9; N-terminus and C-terminus assumed)",recognition of the MUC2 glycoprotein on sections of colonic adenoma,MUC2 glycoprotein,absence of recognition
same,labeling of sections of healthy human gastric epithelia,MUC5AC,demonstrate the specificity
same,Kd,rat MUC5AC glycoprotein,659 µM
same,Kd,[1],549 µM
"PEG750-C60c (CPSIYPLLC; not fully specified; cysteine pairing not given here; also: PEG750 attached, site not given here, coupled to iron particle)",relaxivity r1,Relaxivity measurements; 20 MHz,30.54 s⁻¹ mM⁻¹
same,relaxivity r1,Relaxivity measurements; 60 MHz,14.94 s⁻¹ mM⁻¹
same,iron concentration on the cells,[2],does not change proportionally
same,accumulation in the tumors,[3],only when they secrete MUC5AC
same,signal variation in the tumor (ΔSI),"[4]; 20 μmol of iron/kg, post-contrast",−10%
same,signal variation in the tumor (ΔSI),[4]; 100 μmol of iron/kg,−15%
same,MRI image contrast of the tumor,[4]; 100 μmol/kg,negative contrast image
same,Magnetic diameter,[5],7.2 nm
same,Magnetization at saturation (magn.),[5],70 Am^2/Kg
same,hydrodynamic diameter Z ave (PCS),[5],28 nm
same,labeling / accumulation in the mouse gastric tissue,mouse gastric tissue,specific labeling
same,Iron concentration in the plasma,"[6]; MUC5AC-negative mice, 20 μmol Fe/kg",471.5 µmol/L
same,Iron concentration in the plasma,"[6]; MUC5AC-negative mice, 20 μmol Fe/kg, listed as PEG750-C60C",442.5 µmol/L and 350.7 µmol/L and 337 µmol/L
same,Iron concentration in the plasma,"[6]; MUC5AC-negative mice, 100 μmol Fe/kg",2806 µmol/L and 3638 µmol/L
same,Iron concentration in the plasma,"[6]; MUC5AC-positive mice, 20 μmol Fe/kg",486.8 µmol/L and 380 µmol/L
same,Iron concentration in the plasma,"[6]; MUC5AC-positive mice, 20 μmol Fe/kg, listed as PEG750-C60C",312.4 µmol/L
same,Iron concentration in the plasma,"[6]; MUC5AC-positive mice, 40 μmol Fe/kg",909.6 µmol/L
same,Iron concentration in the plasma,"[6]; MUC5AC-positive mice, 100 μmol Fe/kg",1555.5 µmol/L
same,Iron concentration in the plasma,"[6]; MUC5AC-positive mice, 100 μmol Fe/kg, listed as PEG750-C60C",2590 µmol/L and 3871 µmol/L and 1959 µmol/L
same,MRI image of the gastric region in contact with the lumen,[7],clear darkening
same,iron concentration on the cells,[8],significantly increases
same,MRI image contrast of the tumor,[9]; 100 μmol/kg,no variation in contrast
same,change of signal in the tumor,[9]; same conditions (20 and 100 μmol of iron/kg),no change or a slight increase
